Data reported in PubChem BioAssay (NCI).
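1) Cells in 96-well plates. 2) Compound, 48 h, 5 concentrations. 3) Linear interpolation between surrounding doses. 4) Unreached endpoint = highest concentration. Definition used: TGI = concentration required for complete inhibition of growth.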

Columns and labels:
Assay in all cases: NCI-60 cell line screen, 48 h
786-0 renal = test system: 786-0 renal
A498 renal = test system: A498 renal
A549 NSCLC = test system: A549 NSCLC
ACHN renal = test system: ACHN renal
CAKI-1 renal = test system: CAKI-1 renal
COLO 205 colon = test system: COLO 205 colon
DLD-1 colon = test system: DLD-1 colon
DMS 114 small cell lung = test system: DMS 114 small cell lung
DMS 273 small cell lung = test system: DMS 273 small cell lung
EKVX NSCLC = test system: EKVX NSCLC
HCC-2998 colon = test system: HCC-2998 colon
HCT-116 colon = test system: HCT-116 colon
HCT-15 colon = test system: HCT-15 colon
HOP-62 NSCLC = test system: HOP-62 NSCLC
HOP-92 NSCLC = test system: HOP-92 NSCLC
HT29 colon = test system: HT29 colon
IGROV1 ovarian = test system: IGROV1 ovarian
KM12 colon = test system: KM12 colon
KM20L2 colon = test system: KM20L2 colon
LOX IMVI melanoma = test system: LOX IMVI melanoma
LXFL 529 NSCLC = test system: LXFL 529 NSCLC
M14 melanoma = test system: M14 melanoma
M19-MEL melanoma = test system: M19-MEL melanoma
MALME-3M melanoma = test system: MALME-3M melanoma
NCI-H226 lung = test system: NCI-H226 lung
NCI-H23 lung = test system: NCI-H23 lung
NCI-H460 lung = test system: NCI-H460 lung
OVCAR-3 ovarian = test system: OVCAR-3 ovarian
OVCAR-4 ovarian = test system: OVCAR-4 ovarian
OVCAR-5 ovarian = test system: OVCAR-5 ovarian
OVCAR-8 ovarian = test system: OVCAR-8 ovarian
RXF 393 renal = test system: RXF 393 renal
RXF-631 renal = test system: RXF-631 renal
SF-268 CNS = test system: SF-268 CNS
SF-295 CNS = test system: SF-295 CNS
SF-539 CNS = test system: SF-539 CNS
SK-MEL-28 melanoma = test system: SK-MEL-28 melanoma
SK-MEL-5 melanoma = test system: SK-MEL-5 melanoma
SK-OV-3 ovarian = test system: SK-OV-3 ovarian
SN12C renal = test system: SN12C renal
SNB-75 CNS = test system: SNB-75 CNS
SNB-78 CNS = test system: SNB-78 CNS
SW-620 colon = test system: SW-620 colon
TK-10 renal = test system: TK-10 renal
U251 CNS = test system: U251 CNS
UACC-257 melanoma = test system: UACC-257 melanoma
UACC-62 melanoma = test system: UACC-62 melanoma
UO-31 renal = test system: UO-31 renal
XF 498 CNS = test system: XF 498 CNS
CCRF-CEM leukemia = test system: CCRF-CEM leukemia
HL-60(TB) leukemia = test system: HL-60(TB) leukemia
K-562 leukemia = test system: K-562 leukemia
MOLT-4 leukemia = test system: MOLT-4 leukemia
NCI-H522 lung = test system: NCI-H522 lung
RPMI-8226 leukemia = test system: RPMI-8226 leukemia
SK-MEL-2 melanoma = test system: SK-MEL-2 melanoma
SNB-19 CNS = test system: SNB-19 CNS
HOP-18 NSCLC = test system: HOP-18 NSCLC
SR leukemia = test system: SR leukemia

Measured: TGI

COc1ccc(OC)c2[nH]c(Sc3c([N+](=O)[O-])ncn3C)nc12
26.6 µM: COLO 205 colon
30.1 µM: UACC-257 melanoma
60.1 µM: RXF 393 renal
29.3 µM: MALME-3M melanoma
51.2 µM: EKVX NSCLC
37.8 µM: SN12C renal
47.4 µM: NCI-H226 lung
38.4 µM: HCC-2998 colon
45.6 µM: OVCAR-3 ovarian
42.6 µM: CAKI-1 renal
50.2 µM: M19-MEL melanoma
64.7 µM: OVCAR-4 ovarian
41.3 µM: DMS 273 small cell lung
27.3 µM: LXFL 529 NSCLC
35.9 µM: RXF-631 renal
68.6 µM: SF-268 CNS
61.6 µM: TK-10 renal
44.4 µM: HOP-92 NSCLC
43.5 µM: XF 498 CNS
93.5 µM: UO-31 renal
85.7 µM: IGROV1 ovarian
60.6 µM: KM20L2 colon
35.4 µM: SK-MEL-5 melanoma
51.6 µM: HCT-116 colon
38.8 µM: HCT-15 colon
34.2 µM: SF-539 CNS
35.1 µM: DMS 114 small cell lung
88.3 µM: M14 melanoma
48.8 µM: DLD-1 colon
97.3 µM: A498 renal
51.9 µM: NCI-H23 lung
54.6 µM: SK-MEL-28 melanoma
50.1 µM: OVCAR-8 ovarian
34.1 µM: UACC-62 melanoma
not listed: CCRF-CEM leukemia | HL-60(TB) leukemia | K-562 leukemia | MOLT-4 leukemia | NCI-H522 lung | RPMI-8226 leukemia | SK-MEL-2 melanoma | SNB-19 CNS | HOP-18 NSCLC | SR leukemia
> 100 µM: all other assays above

COC(=O)C1=C(C(=O)OC)C2(CCCCCC2=O)OC1=O (stereo unspecified)
not listed: DLD-1 colon | LOX IMVI melanoma | UO-31 renal | HOP-18 NSCLC | SR leukemia
> 100 µM: all other assays above

CC1=C(c2cc(C(=O)Nc3cc(C)ccc3C)nc(N)n2)Sc2ccccc2N1
not listed: XF 498 CNS
> 100 µM: all other assays above
